This data set is described as follows: in vitro. The following applies: human, hela cells, % viability.
On to `CC1CCN(CC(=O)Nc2sc3c(c2C(=O)NCc2ccccc2)CCCC3)CC1` [CBK268387], for which the viability at 28.5 h, 10 µM amounted to 107%. On to `CN(CC(=O)O/N=C(\N)c1ccc(I)cc1)S(=O)(=O)c1cc(Cl)ccc1Cl` [CBK268389], for which the viability at 28.5 h, 10 µM came out at 89.6%.

With `COc1ccc(-c2noc(CSc3nnc(-c4cccs4)n3-c3ccccc3)n2)cc1` [CBK268390], the viability at 28.5 h, 10 µM was 107%. The figure for `CC(C)(C)c1cc(CCC(=O)NNC(=O)c2ccccc2Cl)cc(C(C)(C)C)c1O` [CBK268391] is 109%; for `CN(C)c1ccc(Nc2nc(NCCO)c3ccccc3n2)cc1` [CBK268392C] it is 87.6%. With `c1ccc2c(c1)nnn2Cc1nnc2sc(-c3cnccn3)nn12` [CBK268393] the figure was 84.7%; with `CC(C)(C)c1ccc(C(=O)CSCC(=O)Nc2ccc3ccccc3c2)cc1` [CBK268394], 85.2%; with `CC(=O)Nc1ccc(S(=O)(=O)NC2(C(F)(F)F)C(=O)Nc3c2c(=O)[nH]c(=S)n3Cc2ccco2)cc1` (stereo not drawn) [CBK268395], 96.8%.

As to `Cn1c(COc2ccccc2)nnc1SCC(=O)c1cccc([N+](=O)[O-])c1` [CBK268397], the viability at 28.5 h, 10 µM was found to be 101%. With `O=C(CCS(=O)(=O)Cc1ccccc1)Nc1cc(C(F)(F)F)ccc1Cl` [CBK268399] the figure was 108%. With `O=C(O)c1ccc(Cl)c2c1C1C=CCC1C(c1ccc(S(=O)(=O)N3CCOCC3)cc1)N2` (stereo not drawn) [CBK268401] the figure was 108%; with `Oc1ccccc1Nc1nc(NC2CCCC2)c2ccccc2n1` [CBK268402C], 84.8%. With `CCOc1ccccc1Nc1c([N+](=O)[O-])nn(-c2ccc(OC)cc2)[n+]1[O-]` [CBK268411] the figure was 90.2%; with `O=c1cc(-c2ccccc2)nc(SCc2nc(-c3cccs3)no2)[nH]1` [CBK268416], 107%; with `Cc1ccc(C(=O)N(Cc2nc(-c3ccc(Cl)cc3)no2)C(C)C)cc1[N+](=O)[O-]` [CBK268422], 98.7%. Consider `CN(C)S(=O)(=O)N(CC(=O)N1CCN(Cc2ccccc2)CC1)c1ccccc1` [CBK268423], for which the viability at 28.5 h, 10 µM was found to be 112%. The figure for `Cn1c(Cc2ccc(Cl)cc2)nnc1SCc1nc2ccccc2c(=O)n1-c1cccc(C(F)(F)F)c1` [CBK268425] is 112%.

Consider `CN(C)CCNC(=O)CSc1ccccc1` [CBK268426], for which the viability at 28.5 h, 10 µM was determined as 98.6%.

In the case of `O=C(COc1ccc(S(=O)(=O)Nc2ccc(Cl)cc2)cc1)Nc1ccccc1F` [CBK268427], the viability at 28.5 h, 10 µM came to 108%. As for `COc1ccccc1-c1nnc2sc(-c3cnccn3)nn12` [CBK268428], the viability at 28.5 h, 10 µM was determined as 100%. The figure for `O=C(NCCCc1nc2ccccc2[nH]1)c1ccccc1` [CBK268429] is 96.9%; for `COc1ccc(-n2nc([N+](=O)[O-])c(NCc3ccccn3)[n+]2[O-])cc1` [CBK268430] it is 96.3%. With `CN1CCN(CC(=O)Nc2sc3c(c2C(=O)Nc2ccccc2)CCCC3)CC1` [CBK268431] the figure was 117%; with `Cn1c(=O)n(C)c2cc(CNCc3cccnc3)ccc21` [CBK268432C], 99.1%. The figure for `c1ccc2c(c1)OCC(c1nn3c(Cn4cnc5ccccc54)nnc3s1)O2` (stereo not drawn) [CBK268436] is 81.4%; for `NC(=O)c1c(NC(=O)c2cnn3cccnc23)sc2c1CCCC2` [CBK268437] it is 87.8%; for `CN(C)c1ccc(/C=C/c2noc(-c3ccccc3O)n2)cc1` [CBK268438] it is 109%. On to `COc1ccc(NS(=O)(=O)c2ccc3c(c2)oc(=O)c2cc(S(=O)(=O)Nc4ccc(OC)cc4)ccc23)cc1` [CBK268439], for which the viability at 28.5 h, 10 µM was found to be 104%. With `COCCNC(=O)CC1Sc2ccccc2NC1=O` (stereo not drawn) [CBK268443] the figure was 98.9%; with `COc1ccc(S(=O)(=O)N(CC(=O)Nc2cccnc2)c2ccc(F)cc2)cc1` [CBK268445], 86.5%. The figure for `c1ccc(OCc2nn3c(Cn4cnc5ccccc54)nnc3s2)cc1` [CBK268446] is 99.2%; for `CS(=O)(=O)N(CC(=O)NCc1ccccn1)c1ccc(C23CC4CC(CC(C4)C2)C3)cc1` [CBK268448] it is 106%; for `O=C(CN1CCC(Cc2ccccc2)CC1)Nc1ccc(S(=O)(=O)N2CCOCC2)cc1` [CBK268451] it is 102%. With `O=C(CSc1nnc(-c2cccs2)n1-c1ccccc1)c1c[nH]c2ccccc12` [CBK268452] the figure was 101%; with `Cn1c(CCNC(=O)NC2CCCCC2)nc2cc([N+](=O)[O-])ccc21` [CBK268453], 95.7%; with `COc1cc2nc(S)n(CCc3ccc(S(N)(=O)=O)cc3)c(=O)c2cc1OC` [CBK268457], 84.4%. Regarding `CC(=O)NCCc1ccc(S(=O)(=O)N2CCN(Cc3ccccc3)CC2)cc1` [CBK268458], the viability at 28.5 h, 10 µM came out at 94.8%.

For `COc1ccc(S(=O)(=O)N(C)CC(=O)O)c2ccccc12` [CBK268459], the viability at 28.5 h, 10 µM worked out at 105%. With `CCN1CCN(C(=O)CN(CC)S(=O)(=O)c2ccc(Cl)cc2)CC1` [CBK268461] the figure was 88.4%. The figure for `COc1ccc(OC)c(NC(=O)CN2CCC(C(N)=O)(N3CCCCC3)CC2)c1` [CBK268462] is 98.2%; for `Nn1c(COc2ccccc2)nnc1SCC(=O)c1ccc2c(c1)CCCC2` [CBK268466] it is 100%; for `N#Cc1c(NC(=S)NC(=O)c2ccc(-c3cccc([N+](=O)[O-])c3)o2)sc2c1CCCC2` [CBK268471] it is 92%. For the compound `O=C(CSCc1nc2ccccc2[nH]1)Nc1cccc(C(F)(F)F)c1` [CBK268474], the viability at 28.5 h, 10 µM amounted to 101%.

For `O=C(Cc1cccc2ccccc12)Nc1cc(C(=O)O)cc(C(=O)O)c1` [CBK268475], the viability at 28.5 h, 10 µM is 94.4%.

With `COc1ccc(S(=O)(=O)NCCSCc2cccc(C)c2)cc1Cl` [CBK268477], the viability at 28.5 h, 10 µM turned out to be 100%. With `CC(=O)NCCc1nc2cc(NC(=O)c3cccc([N+](=O)[O-])c3)ccc2n1C` [CBK268478] the figure was 90.7%. The figure for `Cc1ccc(Cl)cc1NC(=O)c1cc(NC(=O)C2CC=CCC2C(=O)O)ccc1N1CCOCC1` (stereo not drawn) [CBK268479] is 99.1%; for `CN(C)S(=O)(=O)N(CC(=O)Nc1ccc2c(c1)OCO2)c1ccccc1` [CBK268481] it is 110%.

As to `Cc1cc(C)n(-c2nc3cc(Cl)ccc3nc2NCc2ccc3c(c2)OCO3)n1` [CBK268482], the viability at 28.5 h, 10 µM amounted to 106%. Regarding `N=c1c2c(-c3ccccc3)c(-c3ccccc3)oc2ncn1CCCN1CCOCC1` [CBK268484], the viability at 28.5 h, 10 µM is 92.6%.

Turning to `Cc1ccc(NC(=O)CCCn2cc([N+](=O)[O-])cn2)cc1Cl` [CBK268485], the viability at 28.5 h, 10 µM is 76.6%. With `CN1CCN(c2ccccc2NC(=O)c2ccc3ccccc3c2)CC1` [CBK268486] the figure was 96.1%. The figure for `CS(=O)(=O)N1CCc2cc(S(=O)(=O)NCCc3c[nH]c4ccccc34)ccc21` [CBK268487] is 101%. With `NC(=O)C1(N2CCCCC2)CCN(CC(=O)Nc2ccccc2Sc2ccccc2)CC1` [CBK268488] the figure was 94.7%; with `Cc1c(C(N)=O)sc2ncn(CCc3ccccc3)c(=O)c12` [CBK268492], 103%; with `Cc1ccc(-c2noc(CSc3nnc(CCc4ccccc4)n3-c3ccccc3)n2)cc1` [CBK268493], 93.1%. For the compound `CS(=O)(=O)Nc1ccccc1C(=O)NCc1ccccn1` [CBK268494], the viability at 28.5 h, 10 µM was 106%.

Regarding `CC1CCCCN1S(=O)(=O)c1ccc(NC(=O)CCn2cnc3ccccc3c2=O)cc1` (stereo not drawn) [CBK268495], the viability at 28.5 h, 10 µM is 95.5%.

Take `O=C(CSc1nc2sc3c(c2c(=O)n1Cc1ccco1)CCC3)NCc1ccco1` [CBK268499]: the viability at 28.5 h, 10 µM stood at 101%. Regarding `O=C(CSCc1cccc2ccccc12)Nc1c[nH]c(=O)[nH]c1=O` [CBK268500], the viability at 28.5 h, 10 µM was 103%. With `Cc1ccc(Cl)cc1NC(=O)c1cc([N+](=O)[O-])ccc1NCCN1C(=O)c2ccccc2C1=O` [CBK268501] the figure was 99.5%.

Regarding `COc1ccc(C)cc1S(=O)(=O)N1CCCC(C(=O)NCc2ccccn2)C1` (stereo not drawn) [CBK268503], the viability at 28.5 h, 10 µM was 102%. With `COc1ccc(S(=O)(=O)N(CCc2ccccc2)CC(=O)O)cc1C` [CBK268505], the viability at 28.5 h, 10 µM was determined as 95%.

As for `O=C(CSCc1ccc(Br)cc1)NCC1CCCO1` (stereo not drawn) [CBK268506], the viability at 28.5 h, 10 µM turned out to be 87.3%. The figure for `COC(=O)c1cc(OC)c(OC)cc1NC(=S)N1CCC(C(N)=O)CC1` [CBK268507] is 93.3%. With `Cc1cc(C)n(-c2nc3ccccc3nc2N2CCN(S(=O)(=O)c3ccc(F)c(C)c3)CC2)n1` [CBK268508] the figure was 91.1%; with `CSc1ccc(S(=O)(=O)NCCSCc2ccc(C)cc2)cc1` [CBK268510], 104%. With `Cn1c(CCNC(=O)c2cccs2)nc2cc([N+](=O)[O-])ccc21` [CBK268511] the figure was 83%. Regarding `O=[N+]([O-])c1ccc2c(c1)oc1ccc(S(=O)(=O)N3CCCC3)cc12` [CBK268512], the viability at 28.5 h, 10 µM was determined as 107%. With `CCOc1cc(CNCc2ccccn2)cc(Cl)c1OCC` [CBK268516C] the figure was 106%; with `Cc1ccc(S(=O)(=O)NCCSc2nc(-c3ccc([N+](=O)[O-])cc3)c[nH]2)cc1` [CBK268518], 97%. For the compound `Cc1ccc(C(C)C)c(OCC(=O)N2CCN(Cc3nc4cc([N+](=O)[O-])ccc4n3C)CC2)c1` [CBK268519], the viability at 28.5 h, 10 µM is 106%. With `CN1CCN(c2ccccc2NC(=S)NC(=O)c2ccc(N3CCCCC3)c([N+](=O)[O-])c2)CC1` [CBK268520C] the figure was 121%; with `Cc1ccc(NS(=O)(=O)c2cc(C(=O)N3CCN(Cc4ccc5c(c4)OCO5)CC3)ccc2C)cc1` [CBK268521], 102%. With `Cc1ccc2nc(-c3ccccc3)cc(C(=O)NCCCn3ccnc3)c2c1` [CBK268526] the figure was 96.1%.

These data come from article PMC12040169 (PLOS Biology, 2025).
